Assay results from patent US20070255041A1, “Bioengineered Vehicles for Targeted Nucleic Acid Delivery” (priority 2000, published 2007).

Assays:
[1] = tested on: 3T3 cells (c-erbB-2 non-expressing); test: Transfection of 3T3 cells with pXL3031 luciferase plasmid; format: cell-based; settings: 10% serum, mean of three measures
Procedure: (§1) Transfections were done using C6.5-H1, C6ML3-9 sFv′-H1, C6ML3-9 sFv′-P1 (comprising C6ML3-9 coupled to human protamine P1 peptide) and C6ML3-9 sFv′-salmon protamine (C6ML3-9-SP). Conjugates were mixed in […] with pXL3031 (pCOR Luc^+) reporter plasmid at different ratios and, after a 10 minute incubation, used to transfect c-erbB-2 expressing (3T3-HER2) or non-expressing (3T3) cell lines. Transfection were performed in the presence of 10% fetal calf serum (FCS) for 3T3-HER2, or 10% calf serum (CS) for 3T3. After 24 hours of incubation, cells were washed twice with PBS and lysed with 200 μl of cell culture lysis reagent (Promega). Luciferase expression was quantified using a luciferase assay kit (Promega) and a Lumat LB9501 luminometer (EG and G). Light emission (RLU) was normalized to the protein concentration of each sample, measured using the Pierce BCA assay. Conditions of transfection are summarized below for each experiment.
(§2) All transfections were done in the presence of 10% serum. Best transfection conditions are indicated for each compound. All complexes with sFv′ conjugates were formed in 20 mM NaCl, and all complexes with RPR120535 were formed in 20 mM NaHCO3150 mM NaCl. Values correspond to the mean of three different measures of the same assay.

[2] = tested on: 3T3-HER2 cells (c-erbB-2 expressing); test: Transfection of 3T3-HER2 cells with pXL3031 luciferase plasmid; format: cell-based; settings: for RLU/μg of cell proteins: 10% serum, mean of three measures
Procedure: as §1, §2

SK-OV-3 cells [3] = test: pGeneGrip Rhodamine/GFP plasmid delivery, fluorescent microscopy, erbB-2 positive cells; format: cell-based, human; settings: SK-OV-3, at 48 hours
Source text: pGeneGrip Rhodamine/GFP plasmid (Gene Therapy Systems) was used as another reporter plasmid for studying C6.5 sFv′-SP and C6ML3-9 sFv′-SP-mediated gene delivery. In this case, plasmid DNA encoding green fluorescent protein (GFP) was labeled with rhodamine, which allows one to follow internalization of the plasmid DNA as well as the expression of GFP. This reporter facilitated evaluation of the gene delivery efficiency at both DNA and protein expression levels. […] SK-OV-3 and MCF-7 cells were incubated with the protein/DNA complexes and fixed at 6, 24, 48, and 72 hours post-incubation for fluorescent microscopy. FIG. 21 represents the data from the 48 hour time point. […] The rhodamine labeled DNA could be seen inside of SK-OV-3 cells at 24 hours (data not shown). However, the GFP gene expression, was very low, about 1-2% cells being GFP positive in the case of C6ML3-9 sFv′-SP-mediated delivery at 48 hours. It should be noted that, although low, GFP expression level still correlates with the amount of DNA inside of the cells (FIG. 21, compare C6.5 sFv′-SP-DNA with that C6ML3-9 sFv′-SP-DNA). […] The low expression of GFP may be caused by the difficulty of plasmid DNA either escaping from the endosomes or reaching the nucleus.

SK-OV-3 cells [4] = test: Luciferase reporter gene delivery to erbB-2 positive cells; format: cell-based, human
Procedure: Gene delivery experiments were carried out with the anti-erbB-2 sFv′-[salmon protamine]-DNA complex (C6.5 sFv′-SP-DNA or C6ML3-9 sFv′-SP-DNA). The reporter DNA plasmid was the pGL3-control from Promega, which encodes the luciferase gene under control of the SV40 early promoter and enhancers. The erbB-2 positive cell line used in the study was SK-OV-3, a human ovarian cancer cell line. 200 ng of pGL3 reporter plasmid DNA was incubated with increasing amounts of either the sFv′-[salmon protamine] conjugates (sFv′-SP), or the sFv′ mixed with salmon protamine (SP) alone as described. Formation of the protein-DNA complex was confirmed by gel mobility shift analysis (data not shown). The mixture of protein and DNA were then incubated with SK-OV-3 cells in the absence or presence of 100 μM chloroquine. The protein-DNA mixture was removed from the cell culture after a 20 hour incubation. Cells were harvested for luciferase assays at about 40 hours post-incubation using a Dynex MLX Luminometer. The experiment data presented are an averaged data from quadruplet samples of a typical experiment.

MCF-7 cells = test: Luciferase reporter gene delivery to erbB-2 negative control cells; format: cell-based; settings: FIG. 19
[5] = tested on: plasmid DNA (pGL-control or pXL3031); test: Gel mobility shift analysis of complex formation with plasmid DNA; format: binding; settings: 5.8 pmole (360 ng) conjugate; FIG. 18
Procedure: The ability of the anti-erbB-2 C6ML3-9 sFv′-salmone protamine (SP) conjugates to complex with plasmid DNA was tested by a gel mobility shift analysis.
The DNA was added last, and the mixture incubated on ice for 1 to 1.5 hour (in the case of kinetics studies, incubation time was from 5 minutes to 60 minutes as indicated). 2 μl of loading buffer (50% glycerol in 1×TE with dye) was added to the 20 μl reaction. The reaction was electrophoresed on 0.8% agarose gel in 1×TAE, 150 V for about an hour at room temperature and stained with EtBr overnight.

[6] = 3T3-HER2, 7 μg/μg of DNA, no chloroquine

CCCCCCCCCCCCCCCCCCN(CCCCCCCCCCCCCCCCCC)C(=O)CNC(=O)CNCCCNCCCCNCCCN [RPR120535, reference compound]
RLU/μg of cell proteins ([1]; 6 nmoles/μg of DNA, no chloroquine): 26100000 RLU/μg of cell proteins
RLU/μg of cell proteins ([2]; 3T3-HER2, 6 nmoles/μg of DNA, no chloroquine): 2980000 RLU/μg of cell proteins

C6ML3-9 sFv′-H1: C6ML3-9 sFv′ reacted with maleimide-H1 peptide (residues 166 to 192 of human histone H1)
RLU/μg of cell proteins ([1]; 7 μg/μg of DNA, no chloroquine): 0 (±0) RLU/μg of cell proteins
RLU/μg of cell proteins [2, 6]: 27400 (±6030) RLU/μg of cell proteins
increase in transfection efficiency ([2]; 3T3-HER2, increasing conjugate to DNA mass ratio from 4 to 10, FIG. 26): 10 fold
transfection activity on addition of free C6ML3-9 sFv′ or C6ML3-9 sFv′-H1 complexed to pBks plasmid ([2]; competition, specificity of gene transfer, FIG. 25): could be reduced

C6ML3-9 sFv′-P1: C6ML3-9 coupled to human protamine P1 peptide (residues 11 to 28)
RLU/μg of cell proteins ([1]; 6 μg/μg of DNA, 150 μM chloroquine): 9 (±15) RLU/μg of cell proteins
RLU/μg of cell proteins ([2]; 3T3-HER2, 6 μg/μg of DNA, 150 μM chloroquine): 10024 (±3757) RLU/μg of cell proteins

C6ML3-9 sFv′-SP: C6ML3-9 sFv′ coupled via Sulfo-SMCC at its C-terminal sulfhydryl to salmon protamine
cells being GFP positive (GFP gene expression) (SK-OV-3 cells [3]): 1-2%
luciferase gene delivery to SK-OV-3 cells (SK-OV-3 cells [4]; 200 ng pGL3-control plasmid, 20 hour incubation, luciferase assay about 40 hours post-incubation, FIG. 19): delivered luciferase reporter plasmids into SK-OV-3 cells
chloroquine dependence of luciferase gene delivery to SK-OV-3 cells (SK-OV-3 cells [4]; absence or presence of 100 μM chloroquine, FIG. 20): chloroquine-dependent
luciferase gene delivery to SK-OV-3 cells after pre-incubating the cells with free C6ML3-9 sFv′ (SK-OV-3 cells [4]; competition, data not shown): could be competed away
luciferase activity in MCF-7 cells (erbB-2 negative control) (MCF-7 cells): minimal luciferase activity
time in which the conjugate-DNA complex could form [5]: 5 min
RLU/μg of cell proteins ([1]; 4 μg/μg of DNA, 200 μM chloroquine): 1080 (±715) RLU/μg of cell proteins
RLU/μg of cell proteins ([2]; 3T3-HER2, 4 μg/μg of DNA, 200 μM chloroquine): 220000 (±20000) RLU/μg of cell proteins

B1: C6.5-H1: C6.5 sFv′ conjugated to the human histone H1 peptide (conjugate)
scFv: QVQLLQSGAELKKPGESLKISCKGSGYSFTSYWIAWVRQMPGKGLEYMGLIYPGDSDTKYSPSFQGQVTISVDKSVSTAYLQWSSLKPSDSAVYFCARHDVGYCSSSNCAKWPEYFQHWGQGTLVTVSSGGGGSGGGGSGGGGSQSVLTQPPSVSAAPGQKVTISCSGSSSNIGNNYVSWYQQLPGTAPKLLIYGHTNRPAGVPDRFSGSKSGTSASLAISGFRSEDEADYYCAAWDDSLSGWVFGGGTKLTVLGHHHHHHGGGGC
peptide: AKKAKSPKKAKAAKPKKAPKSPAKAK
RLU/μg of cell proteins ([1]; 7 μg/μg of DNA, no chloroquine): 6 (±7) RLU/μg of cell proteins
RLU/μg of cell proteins [2, 6]: 659 (±240) RLU/μg of cell proteins
